Experimental data reported in US5847074A, “Phospholipase C-inhibiting peptides” (Kyowa Hakko Kogyo Co., Ltd., priority 1993, dated 1998).
≈ marks a conversion by molar mass, not a printed value. Where a SMILES comes first, the peptide text is derived from it. Bridges are numbered along the chain shown (N, C = ends). The star is where a group is joined. Octanoyl = CCCCCCCC(=O)*

Experiments:
[1] = tested on: KMS-4 cells; test: Cell proliferation-inhibiting activity (BrdU incorporation); type: cell-based; conditions: test peptide concentration 6 μM, incubation for 17 hours
Description: The cell proliferation-inhibiting activity of the test peptides was determined using a cell proliferation-detecting kit available from Amersham in the following manner. KMS-4 cells (M. Nanba et al., International Journal of Cancer, 32, 697 (1983)) were added to a DMEM medium containing a 10% fetal calf serum (available from Nissui Pharmaceutical) and the cell concentration was adjusted to 1-2×10^4 cells/ml. The resulting cell suspension (1 ml) was then placed in each well of a 24-well plate (available from Corning) and incubated in a CO2 incubator (37° C., 5% CO2) for 2 days. Subsequently, the medium was replaced with a fresh DMEM medium containing a 10% fetal calf serum, and a test peptide was added, followed by incubation for 17 hours. […] The number of cells which incorporated BrdU and the total number of cells were counted within one visual field (about 200 cells) under microscopic examination and the percentage (%) of the stained cell counts per visual field was calculated. […] Cell proliferation-inhibiting activity was expressed by percent cell proliferation inhibition (X) which was calculated from the following equation. […]

[2] = molecular target: T1, PLC-γ1 (Bos taurus, UniProt P08487); test: PLC-inhibiting activity ([3H]PIP2 hydrolysis); type: biochemical; conditions: test peptide concentration 220 μM; PI-PLC-γ1 from bovine thymus; 37° C., 10 minutes
T1 construct: A sample of PLC-γ1 was prepared from bovine thymus; from tissue; host or cells: bovine thymus
T1 sequence (P08487 1-1291): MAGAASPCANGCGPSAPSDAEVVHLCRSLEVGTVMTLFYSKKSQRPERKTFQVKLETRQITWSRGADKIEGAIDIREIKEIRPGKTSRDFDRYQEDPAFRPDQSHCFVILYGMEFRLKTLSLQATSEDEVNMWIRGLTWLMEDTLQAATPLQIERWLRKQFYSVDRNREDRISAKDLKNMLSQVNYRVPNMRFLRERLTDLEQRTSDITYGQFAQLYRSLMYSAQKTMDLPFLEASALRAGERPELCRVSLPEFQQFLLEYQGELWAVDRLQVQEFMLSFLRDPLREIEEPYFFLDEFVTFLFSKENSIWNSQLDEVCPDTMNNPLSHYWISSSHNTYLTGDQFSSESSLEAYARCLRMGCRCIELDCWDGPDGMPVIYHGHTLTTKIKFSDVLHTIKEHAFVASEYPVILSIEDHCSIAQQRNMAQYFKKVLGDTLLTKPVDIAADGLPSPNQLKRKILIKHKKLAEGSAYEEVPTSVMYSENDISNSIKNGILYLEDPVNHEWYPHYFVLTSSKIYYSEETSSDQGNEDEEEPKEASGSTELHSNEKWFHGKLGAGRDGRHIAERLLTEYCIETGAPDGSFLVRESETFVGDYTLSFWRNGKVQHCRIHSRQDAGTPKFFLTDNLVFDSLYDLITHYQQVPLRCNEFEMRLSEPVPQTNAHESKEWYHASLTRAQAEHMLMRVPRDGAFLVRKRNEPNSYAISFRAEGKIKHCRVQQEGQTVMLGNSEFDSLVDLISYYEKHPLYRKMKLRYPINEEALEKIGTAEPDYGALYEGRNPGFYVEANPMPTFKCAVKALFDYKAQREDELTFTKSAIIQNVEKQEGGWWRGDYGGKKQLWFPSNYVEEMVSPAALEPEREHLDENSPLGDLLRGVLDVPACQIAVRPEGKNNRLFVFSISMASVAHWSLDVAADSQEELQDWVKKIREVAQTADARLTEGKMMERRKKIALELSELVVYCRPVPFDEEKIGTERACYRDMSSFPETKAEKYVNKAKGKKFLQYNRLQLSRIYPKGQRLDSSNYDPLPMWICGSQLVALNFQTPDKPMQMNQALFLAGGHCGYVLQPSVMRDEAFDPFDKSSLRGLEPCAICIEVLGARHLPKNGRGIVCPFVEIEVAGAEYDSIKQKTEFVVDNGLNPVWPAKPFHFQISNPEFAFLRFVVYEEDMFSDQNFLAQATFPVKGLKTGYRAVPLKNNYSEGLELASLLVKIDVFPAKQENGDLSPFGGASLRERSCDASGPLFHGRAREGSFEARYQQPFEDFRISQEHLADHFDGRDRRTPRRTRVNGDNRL
Description: A sample of PLC-γ1 was prepared from bovine thymus according to the method described in Y. Homma et al., Biochem.J., 269, 13 (1990).
A solution having the composition shown in Table 2 was prepared on ice and the reaction was initiated by heating it to 37° C. After incubation for 10 minutes, 2 ml of a chloroform-methanol (2:1, V/V) mixed solution was added to stop the reaction. The produced inositol phosphate was extracted with 0.5 ml of 1N hydrochloric acid. The extract was separated into two liquid phases by centrifugation (2000×g, 3 minutes) and the amount of ^3 H in the supernatant (0.7 ml) was measured with a scintillation counter. […]
Percent inhibition (X) was calculated from the following equation.
where A is the obtained value of specific radioactivity, B is the value of specific radioactivity when the same amount of water was added instead of an aqueous solution of a test peptide, and C is the value of specific radioactivity when the same amount of water was added instead of a sample and an aqueous solution of a test peptide.

[3] = tested on: Proteus vulgaris ATCC6897; type: cell-based; conditions: ATCC6897, pH 7
Description: Antimicrobial activity was determined by an agar dilution method using a medium consisting of Bacto-tryptone (available from Difco) (3 g/l), meat extract (1 g/l), glucose (1 g/l) and agar (16 g/l) (pH 7.0).

**Q.** Which “Inhibition (%) of cell proliferation” value [1] does the source give for CCCCCCCC(=O)N[C@H]1CSSC[C@@H](C(N)=O)NC(=O)[C@H](C(C)C)NC(=O)[C@@H]2CCCN2C(=O)[C@H](Cc2ccc(O)cc2)NC(=O)[C@H](CCCNC(=N)N)NC(=O)[C@H](CC(C)C)NC(=O)[C@H](CCCNC(=N)N)NC(=O)[C@H](CCSC)NC(=O)[C@H](CCCCN)NC(=O)[C@H](CCCNC(=N)N)NC(=O)[C@H](Cc2ccc(O)cc2)NC(=O)[C@H](CC(C)C)NC1=O [Compound (I-4)] (Octanoyl-CLYRKMRLRYPVC-NH2; disulfide 1-13) here?
**A.** The value was 61%.

**Q.** What about the inhibition at 220 µM [2] of the same compound?
**A.** Its inhibition at 220 µM is 56%.

**Q.** What about the “minimum inhibitory concentrations (MIC)” value [3] of the same compound?
**A.** The value was 166 µg/mL (≈ 91 µM).
